Patent publication US20230233569A1 (Revolution Medicines, Inc., priority 2020, published 2023)
Read-outs that look alike come from different tables or passages of the source.

Tests used:
Capan-1 (K-Ras G12V) = experiment: CellTiter-Glo cell viability assay, 5-day treatment; format: cell-based; conditions: Homo sapiens, CAPAN-1, 120 h, 5-day treatment; read-out: Capan-1 Cell Viability assay data (K-Ras G12V, IC50)
Procedure: (§1) Protocol: CellTiter-Glo® Cell Viability Assay
(§2) Note—The following protocol describes a procedure for monitoring cell viability of K-Ras mutant cancer cell lines in response to a compound of the invention. Other RAS isoforms may be employed, though the number of cells to be seeded will vary based on cell line used.
(§3) Test compounds (132.5 nL) were directly dispensed into the assay plates containing cells. […] On day 5, assay plates and their contents were equilibrated to room temperature for approximately 30 minutes. […] Luminescence was measured using the PerkinElmer Enspire. Data were normalized by the following: (Sample signal/Avg. DMSO)*100. The data were fit using a four-parameter logistic fit.
as §3, with “nl)” for “nL)”

KRAS G13C = KRAS G13C (Homo sapiens, UniProt P01116+P62937, G13C); experiment: Disruption of BRAF RBD interaction with Ras (FRET / MOA assay, with Cyclophilin A); format: biochemical
Description: (§4) This protocol may also be executed substituting other Ras proteins or nucleotides.
(§5) The purpose of this biochemical assay was to measure the ability of test compounds to facilitate ternary complex formation between a nucleotide-loaded K-Ras isoform and Cyclophilin A; the resulting ternary complex disrupts binding to a BRAF^RBD construct, inhibiting K-Ras signaling through a RAF effector. Data is reported as IC50 values.
(§6) Compound was present in plate wells as a 10-point 3-fold dilution series starting at a final concentration of 30 μM. After incubation at 25° C. for 3 hours, a mixture of Anti-His Eu-W1024 and anti-GST allophycocyanin was then added to assay sample wells at final concentrations of 10 nM and 50 nM, respectively, and the reaction incubated for an additional 1.5 hours. […] Compounds that facilitate disruption of a K-Ras:RAF complex were identified as those eliciting a decrease in the TR-FRET ratio relative to DMSO control wells.
as §5, with “BRAF^RBDD” for “BRAF^RBD”

KRAS G12C = KRAS G12C (Homo sapiens, UniProt P01116+P62937, G12C); experiment: as above; format: biochemical
Description: as §4, §5, §6
as §5, with “BRAF^RBDD” for “BRAF^RBD”

KRAS G12V = KRAS G12V (Homo sapiens, UniProt P01116+P62937, G12V); experiment: as above; format: biochemical
Description: as §4, §5, §6
as §5, with “BRAF^RBDD” for “BRAF^RBD”

KRAS G13D = KRAS G13D (Homo sapiens, UniProt P01116+P62937, G13D); experiment: as above; format: biochemical
Description: as §4, §5, §6
as §5, with “BRAF^RBDD” for “BRAF^RBD”

KRAS G12D = KRAS G12D (Homo sapiens, UniProt P01116+P62937, G12D); experiment: as above; format: biochemical
Description: as §4, §5, §6
as §5, with “BRAF^RBDD” for “BRAF^RBD”

NRAS G12C = NRAS G12C (Homo sapiens, UniProt P01111+P62937, G12C); experiment: as above; format: biochemical
Description: as §4, §5, §6
as §5, with “BRAF^RBDD” for “BRAF^RBD”

KRAS G12S = KRAS G12S (Homo sapiens, UniProt P01116+P62937, G12S); experiment: as above; format: biochemical
Description: as §4, §5, §6
as §5, with “BRAF^RBDD” for “BRAF^RBD”

KRAS WT = KRAS WT (Homo sapiens, UniProt P01116+P62937); experiment: as above; format: biochemical
Description: as §4, §5, §6
as §5, with “BRAF^RBDD” for “BRAF^RBD”

NCI-H358 (K-Ras G12C) = experiment: CellTiter-Glo cell viability assay, 5-day treatment; format: cell-based; conditions: Homo sapiens, NCI-H358, 120 h, 5-day treatment; read-out: H358 Cell Viability assay data (K-Ras G12C, IC50)
Procedure: as §1, §2, §3
as §3, with “nl)” for “nL)”

[1] = read-out: KRAS G13C FRET data, IC50
[2] = read-out: KRAS G12C FRET data, IC50
[3] = KRAS G12V, read-out: KRAS G12V FRET data IC50
[4] = KRAS G13D, read-out: KRAS G13D FRET data IC50
[5] = read-out: KRAS G12D FRET data, IC50
[6] = NRAS G12C, read-out: NRAS G12C FRET data IC50
[7] = read-out: KRAS G12S FRET data, IC50
[8] = KRAS WT, read-out: KRAS WT FRET data IC50

Chain of KRAS G12D (P01116 1-169 isoform P01116-2 G12D limits assumed): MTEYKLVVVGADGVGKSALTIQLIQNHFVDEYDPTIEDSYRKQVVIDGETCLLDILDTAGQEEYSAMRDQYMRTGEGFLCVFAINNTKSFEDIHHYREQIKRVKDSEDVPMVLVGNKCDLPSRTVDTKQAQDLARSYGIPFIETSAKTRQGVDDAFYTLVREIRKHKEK
Chain of KRAS G12D (P62937 whole entry): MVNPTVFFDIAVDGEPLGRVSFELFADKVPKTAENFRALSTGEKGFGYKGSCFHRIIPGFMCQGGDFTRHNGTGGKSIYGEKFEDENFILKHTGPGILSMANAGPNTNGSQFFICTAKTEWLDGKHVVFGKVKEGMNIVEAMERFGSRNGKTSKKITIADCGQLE
Chain of KRAS G13C (P01116 1-169 isoform P01116-2 G13C): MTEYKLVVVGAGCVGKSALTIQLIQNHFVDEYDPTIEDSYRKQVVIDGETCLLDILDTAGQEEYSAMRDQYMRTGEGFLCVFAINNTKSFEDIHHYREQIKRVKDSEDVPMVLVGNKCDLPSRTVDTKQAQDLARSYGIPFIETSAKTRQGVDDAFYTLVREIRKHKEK
Chain of KRAS G13C (P62937 whole entry): as the sequence (P62937 whole entry) above
Chain of KRAS WT (P01116 1-169 isoform P01116-2 limits assumed): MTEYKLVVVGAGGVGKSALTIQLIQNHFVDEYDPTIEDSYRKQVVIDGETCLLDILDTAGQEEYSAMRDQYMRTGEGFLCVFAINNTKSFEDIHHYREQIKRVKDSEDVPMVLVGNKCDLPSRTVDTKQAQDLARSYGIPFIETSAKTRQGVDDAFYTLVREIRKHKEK
Chain of KRAS WT (P62937 whole entry): as the sequence (P62937 whole entry) above
Chain of KRAS G13D (P01116 1-169 isoform P01116-2 G13D limits assumed): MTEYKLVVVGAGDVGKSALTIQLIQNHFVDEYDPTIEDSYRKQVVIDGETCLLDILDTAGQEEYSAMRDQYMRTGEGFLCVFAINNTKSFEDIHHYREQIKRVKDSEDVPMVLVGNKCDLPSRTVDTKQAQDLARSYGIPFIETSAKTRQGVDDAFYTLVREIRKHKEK
Chain of KRAS G13D (P62937 whole entry): as the sequence (P62937 whole entry) above
Chain of KRAS G12S (P01116 1-169 isoform P01116-2 G12S limits assumed): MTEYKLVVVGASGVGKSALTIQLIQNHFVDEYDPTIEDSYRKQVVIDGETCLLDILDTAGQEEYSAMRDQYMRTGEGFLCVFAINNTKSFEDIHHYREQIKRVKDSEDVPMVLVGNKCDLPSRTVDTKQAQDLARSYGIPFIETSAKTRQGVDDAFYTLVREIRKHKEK
Chain of KRAS G12S (P62937 whole entry): as the sequence (P62937 whole entry) above
Chain of KRAS G12C (P01116 1-169 isoform P01116-2 G12C): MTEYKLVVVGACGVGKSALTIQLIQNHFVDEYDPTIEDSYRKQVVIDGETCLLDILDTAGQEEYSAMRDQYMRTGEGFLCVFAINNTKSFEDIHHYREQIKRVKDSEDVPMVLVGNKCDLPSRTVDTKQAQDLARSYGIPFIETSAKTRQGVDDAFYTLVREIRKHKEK
Chain of KRAS G12C (P62937 whole entry): as the sequence (P62937 whole entry) above
Chain of NRAS G12C (P01111 whole entry G12C): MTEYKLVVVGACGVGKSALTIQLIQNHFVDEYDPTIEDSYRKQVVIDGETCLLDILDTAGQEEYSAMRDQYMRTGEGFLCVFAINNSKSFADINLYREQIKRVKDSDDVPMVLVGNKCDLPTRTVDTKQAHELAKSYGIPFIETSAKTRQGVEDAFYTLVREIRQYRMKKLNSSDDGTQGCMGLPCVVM
Chain of NRAS G12C (P62937 whole entry): as the sequence (P62937 whole entry) above
Chain of KRAS G12V (P01116 1-169 isoform P01116-2 G12V limits assumed): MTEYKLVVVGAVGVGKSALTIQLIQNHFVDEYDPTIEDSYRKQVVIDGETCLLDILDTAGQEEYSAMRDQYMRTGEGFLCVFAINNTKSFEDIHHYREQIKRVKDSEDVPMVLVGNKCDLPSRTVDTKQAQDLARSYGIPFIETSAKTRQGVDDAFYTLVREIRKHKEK
Chain of KRAS G12V (P62937 whole entry): as the sequence (P62937 whole entry) above

Row | SMILES | IC50 (Capan-1 (K-Ras G12V)) [µM] | IC50 (KRAS G13C; [1]) [µM] | IC50 (KRAS G12C; [2]) [µM] | IC50 (KRAS G12V; [3]) [µM] | IC50 (KRAS G13D; [4]) [µM] | IC50 (KRAS G12D; [5]) [µM] | IC50 (NRAS G12C; [6]) [µM] | IC50 (KRAS G12S; [7]) [µM] | IC50 (KRAS WT; [8]) [µM] | IC50 (NCI-H358 (K-Ras G12C)) [µM] | IC50 (KRAS G13C; KRAS G13C FRET data, IC50) [µM] | IC50 (KRAS G12C; KRAS G12C FRET data, IC50) [µM] | IC50 (KRAS G12V; KRAS G12V FRET data IC50, KRAS G12V) [µM] | IC50 (KRAS G13D; KRAS G13D FRET data IC50, KRAS G13D) [µM] | IC50 (KRAS G12D; KRAS G12D FRET data, IC50) [µM] | IC50 (NRAS G12C; NRAS G12C FRET data IC50, NRAS G12C) [µM] | IC50 (KRAS G12S; KRAS G12S FRET data, IC50) [µM] | IC50 (KRAS WT; KRAS WT FRET data IC50, KRAS WT) [µM]
1 | CCn1c(-c2cccnc2[C@@H]2CCCO2)c2c3cc(ccc31)-c1csc(n1)C[C@H](NC(=O)[C@H](C(C)C)N(C)C(=O)N1CC(N(C)C)C1)C(=O)N1CCC[C@H](N1)C(=O)OCC(C)(C)C2 (atropisomer, axis not shown) [Example A327] | 1 to 10 | > 10 | > 10 | > 10 | > 10 | > 10 | > 10 | > 10 | > 10 |  |  |  |  |  |  |  |  | 
2 | CCn1c(-c2cccnc2[C@H](C)OC)c2c3cc(ccc31)-c1cc(O)cc(c1)C[C@H](NC(=O)[C@@H](NC(C)=O)C(C)(C)OC)C(=O)N1CCC[C@H](N1)C(=O)OCC(C)(C)C2 (racemic) [Example A172] | > 10 | 1 to 10 | > 10 | > 10 | > 10 | > 10 | > 10 | > 10 | > 10 |  |  |  |  |  |  |  |  | 
3 | CCn1c(-c2cccnc2[C@H](C)OC)c2c3cc(ccc31)-c1cc(O)cc(c1)C[C@H](NS(=O)(=O)CC1OCCC13CNC3)C(=O)N1CCC[C@H](N1)C(=O)OCC(C)(C)C2 (mixture of isomers) [Example A187] | > 10 | > 10 | > 10 | > 10 | > 10 | > 10 | > 10 | > 10 | > 10 |  |  |  |  |  |  |  |  | 
4 | CCn1c(-c2cnccc2COC)c2c3cc(ccc31)-c1cc(O)cc(c1)C[C@H](NC(=O)[C@H](C(C)C)N(C)C(=O)[C@H]1CCN(C(=O)C(C)(C)N(C)C)C1)C(=O)N1CCC[C@H](N1)C(=O)OCC(C)(C)C2 [Example A8] | 1 to 10 |  |  |  |  |  |  |  |  |  |  |  |  |  |  |  |  | 
5 | CCn1c(-c2cnccc2COC)c2c3cc(ccc31)-c1cc(O)cc(c1)C[C@H](NC(=O)[C@H](C(C)C)N(C)C(=O)OC1CCOC1)C(=O)N1CCC[C@H](N1)C(=O)OCC(C)(C)C2 (stereo partly drawn) [Example A50, oxolan-3-yl-N-[(1S)-1-{[(8S,14S)-22-ethyl-4-hydroxy-21-[4-(methoxymethyl)pyridin-3-yl]-18,18-dimethyl-9,15-dioxo-16-oxa-10,22,28-triazapentacyclo[18.5.2.1^2,6.1^10,14.0^23,27]nonacosa-1(26),2,4,6(29),20,23(27),24-heptaen-8-yl]carbamoyl}-2-methylpropyl]-N-methylcarbamate] |  |  |  |  |  |  |  |  |  | 1 to 10 | 1 to 10 | 0.1 to 1 | 1 to 10 | 1 to 10 | 1 to 10 | 1 to 10 | 1 to 10 | 0.1 to 1
6 | CCn1c(-c2cnccc2COC)c2c3cc(ccc31)-c1cc(O)cc(c1)C[C@H](NC(=O)[C@@H](OC(=O)N(C)C)C(C)C)C(=O)N1CCC[C@H](N1)C(=O)OCC(C)(C)C2 [Example A53] |  | 1 to 10 | 0.1 to 1 | 1 to 10 | 1 to 10 | > 10 | 1 to 10 | 1 to 10 | 1 to 10 | 1 to 10 |  |  |  |  |  |  |  | 
7 | CCn1c(-c2cccnc2[C@H](C)OC)c2c3cc(ccc31)-c1cccc(c1)C[C@H](NC(=O)[C@H](C(C)C)N(C)C(=O)[C@H]1CCN(C(C)=O)C1)C(=O)N1CCC[C@H](N1)C(=O)OCC(C)(C)C2 [Example A60] |  | > 10 | 1 to 10 | 1 to 10 | > 10 | > 10 | 1 to 10 | 1 to 10 | 1 to 10 | 1 to 10 |  |  |  |  |  |  |  | 
8 | CCn1c(-c2cnccc2COC)c2c3cc(ccc31)-c1cc(O)cc(c1)C[C@H](NC(=O)[C@H](C(C)C)N(C)C(=O)CN1CCOCC1)C(=O)N1CCC[C@H](N1)C(=O)OCC(C)(C)C2 [Example A65] |  | 0.1 to 1 | 0.1 to 1 | 1 to 10 | 0.1 to 1 | 1 to 10 | 0.1 to 1 | 0.1 to 1 | 0.1 to 1 | 1 to 10 |  |  |  |  |  |  |  | 
